Test results from publication PMC6177136, “Hybrid topoisomerase I and HDAC inhibitors as dual action anticancer agents” (PLoS ONE, 2018).

Key:
[1] = tested on: MM472; assay: Cytotoxicity assay, primary mesothelioma MM472; type: cell-based, Human; settings: sarcomatoid, 72 h, SBR assay; read-out: IC50 ± SD MM472
[2] = tested on: MM481; assay: Cytotoxicity assay, primary mesothelioma MM481; type: cell-based, Human; settings: epithelioid, 72 h, SBR assay; read-out: IC50 ± SD MM481
[3] = tested on: MM317; assay: Cytotoxicity assay, primary mesothelioma MM317; type: cell-based, Human; settings: epithelioid, 72 h, SBR assay; read-out: IC50 ± SD MM317
[4] = tested on: MM473; assay: Cytotoxicity assay, primary mesothelioma MM473; type: cell-based, Human; settings: epithelioid, 72 h, SBR assay; read-out: IC50 ± SD MM473
[5] = tested on: MM288; assay: Cytotoxicity assay, primary mesothelioma MM288; type: cell-based, Human; settings: epithelioid, 72 h, SBR assay; read-out: IC50 ± SD MM288
[6] = tested on: MM404; assay: Cytotoxicity assay, primary mesothelioma MM404; type: cell-based, Human; settings: epithelioid, 72 h, SBR assay; read-out: IC50 ± SD MM404
[7] = tested on: MM432; assay: Cytotoxicity assay, primary mesothelioma MM432; type: cell-based, Human; settings: sarcomatoid, 72 h, SBR assay; read-out: IC50 ± SD MM432
[8] = tested on: MM491; assay: Cytotoxicity assay, primary mesothelioma MM491; type: cell-based, Human; settings: biphasic, 72 h, SBR assay; read-out: IC50 ± SD MM491
[9] = tested on: MM487; assay: Cytotoxicity assay, primary mesothelioma MM487; type: cell-based, Human; settings: biphasic, 72 h, SBR assay; read-out: IC50 ± SD MM487
[10] = biological target: HDAC2 (Homo sapiens, UniProt Q92769); assay: HDAC profiling HDAC2; type: biochemical; settings: purified isoform, 10 concentrations from 10 μM, triplicate
Chain of HDAC2 (Q92769 whole entry, canonical isoform): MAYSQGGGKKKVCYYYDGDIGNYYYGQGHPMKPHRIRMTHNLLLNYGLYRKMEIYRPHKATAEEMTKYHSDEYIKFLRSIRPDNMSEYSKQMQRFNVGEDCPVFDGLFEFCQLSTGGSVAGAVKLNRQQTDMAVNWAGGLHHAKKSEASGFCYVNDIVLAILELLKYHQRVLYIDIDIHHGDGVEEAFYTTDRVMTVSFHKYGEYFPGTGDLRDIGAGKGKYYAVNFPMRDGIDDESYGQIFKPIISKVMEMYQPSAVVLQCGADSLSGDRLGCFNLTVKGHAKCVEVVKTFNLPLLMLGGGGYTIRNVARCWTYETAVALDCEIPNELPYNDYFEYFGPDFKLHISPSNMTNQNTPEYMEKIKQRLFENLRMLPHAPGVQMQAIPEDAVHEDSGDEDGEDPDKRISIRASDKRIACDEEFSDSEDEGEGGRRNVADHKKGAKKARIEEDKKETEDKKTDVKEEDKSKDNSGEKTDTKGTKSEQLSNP

[11] = tested on: NCI-H460; assay: Cytotoxicity assay (SRB, 72 h) NCI-H460; type: cell-based, Human; settings: Homo sapiens; for IC50: NCI-H460, 72 h, SRB assay, read-out: IC50 ± SD NCI-H460
[12] = tested on: A2780-Dx; assay: Cytotoxicity assay (SRB, 72 h) A2780-Dx; type: cell-based, Human; settings: for RI (Resistance Index): A2780-Dx versus A2780; for IC50: Homo sapiens, A2780/DX, 72 h, SRB assay, multidrug-resistant ovarian carcinoma, read-out: IC50 ± SD A2780-Dx
[13] = biological target: HDAC10 (Homo sapiens, UniProt Q969S8); assay: HDAC profiling HDAC10; type: biochemical; settings: purified isoform, 10 concentrations from 10 μM, triplicate
Chain of HDAC10 (Q969S8 whole entry, canonical isoform): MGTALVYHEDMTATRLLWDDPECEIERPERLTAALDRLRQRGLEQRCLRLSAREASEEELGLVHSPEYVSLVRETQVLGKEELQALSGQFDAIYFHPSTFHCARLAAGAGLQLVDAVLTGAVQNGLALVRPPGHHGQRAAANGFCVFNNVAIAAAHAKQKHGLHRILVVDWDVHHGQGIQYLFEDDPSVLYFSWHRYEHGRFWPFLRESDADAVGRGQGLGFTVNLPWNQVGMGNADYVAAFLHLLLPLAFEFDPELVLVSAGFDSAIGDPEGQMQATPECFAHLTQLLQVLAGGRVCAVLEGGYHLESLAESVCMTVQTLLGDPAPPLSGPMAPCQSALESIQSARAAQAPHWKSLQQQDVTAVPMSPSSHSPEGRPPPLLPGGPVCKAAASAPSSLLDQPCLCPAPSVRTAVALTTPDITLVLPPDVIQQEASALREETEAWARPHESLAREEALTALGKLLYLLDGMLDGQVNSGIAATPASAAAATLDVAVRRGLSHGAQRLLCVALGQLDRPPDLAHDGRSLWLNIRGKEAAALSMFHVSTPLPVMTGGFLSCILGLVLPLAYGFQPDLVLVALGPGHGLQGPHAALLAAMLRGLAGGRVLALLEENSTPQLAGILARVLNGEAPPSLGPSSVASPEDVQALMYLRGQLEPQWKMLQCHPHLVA

[14] = tested on: Acetylated Histone H4; assay: Western blot, acetylation of histone H4 in NCI-H460 cells; type: cell-based, Human; settings: 24 h; SN38 0.05 μM, SAHA 5 μM, 3b and 3d 0.125–0.2–0.5 μM
Description: (§1) The supernatant, containing the total proteins extracts, were transferred in new vials. The protein concentration was measured by Bradford Protein Assay. Equal amounts of proteins for each sample were then resolved by SDS-PAGE and loaded on 10–12% polyacrilamide gels. The proteins were then transferred on nitrocellulose membranes. Molecular weights were estimated based upon the relative migration with molecular weight protein markers.
(§2) The non-specific binding was blocked by incubation of membranes in TBS-tween (25 mM Tris, 150 mM NaCl, 0.1% Tween 20) with 5% nonfat dry milk (BIORAD, Milan) for 60 minutes. Subsequently, the membrane was incubated overnight with primary antibodies: anti-Histone H4 (Millipore, 1:500), anti-acetyl-H4 (Santa Cruz, 1:1000) anti-p21 (Santa Cruz, 1:1000), anti-acetyl-tubulin (abcam, 1:1000), anti-α-tubulin (Sigma, 1:5000), anti β-actin (Sigma, 1:5000) and anti-Topoisomerase 1 (Santa Cruz, 1:500). After three washes with TBST blots were incubated with HRP-coniugated secondary anti-mouse and anti-rabbit (Santa Cruz, 1:5000) 1 hour at room temperature. After three washes with TBST the blots were developed with ECL substrate (GE Healthcare) and chemiluminescence detected by ChemiDoc Imaging System (Biorad). The optical density of the protein bands detected by western blotting was normalized on α -tubulin levels and analyzed by ChemiDoc software (Biorad). […]

[15] = tested on: A2780; assay: Cytotoxicity assay (SRB, 72 h) A2780; type: cell-based, Human; settings: Homo sapiens, A2780, read-out: IC50 ± SD A2780
[16] = biological target: HDAC6 (Homo sapiens, UniProt Q9UBN7); assay: HDAC profiling HDAC6; type: biochemical; settings: purified isoform, 10 concentrations from 10 μM, triplicate
Chain of HDAC6 (Q9UBN7 whole entry, canonical isoform): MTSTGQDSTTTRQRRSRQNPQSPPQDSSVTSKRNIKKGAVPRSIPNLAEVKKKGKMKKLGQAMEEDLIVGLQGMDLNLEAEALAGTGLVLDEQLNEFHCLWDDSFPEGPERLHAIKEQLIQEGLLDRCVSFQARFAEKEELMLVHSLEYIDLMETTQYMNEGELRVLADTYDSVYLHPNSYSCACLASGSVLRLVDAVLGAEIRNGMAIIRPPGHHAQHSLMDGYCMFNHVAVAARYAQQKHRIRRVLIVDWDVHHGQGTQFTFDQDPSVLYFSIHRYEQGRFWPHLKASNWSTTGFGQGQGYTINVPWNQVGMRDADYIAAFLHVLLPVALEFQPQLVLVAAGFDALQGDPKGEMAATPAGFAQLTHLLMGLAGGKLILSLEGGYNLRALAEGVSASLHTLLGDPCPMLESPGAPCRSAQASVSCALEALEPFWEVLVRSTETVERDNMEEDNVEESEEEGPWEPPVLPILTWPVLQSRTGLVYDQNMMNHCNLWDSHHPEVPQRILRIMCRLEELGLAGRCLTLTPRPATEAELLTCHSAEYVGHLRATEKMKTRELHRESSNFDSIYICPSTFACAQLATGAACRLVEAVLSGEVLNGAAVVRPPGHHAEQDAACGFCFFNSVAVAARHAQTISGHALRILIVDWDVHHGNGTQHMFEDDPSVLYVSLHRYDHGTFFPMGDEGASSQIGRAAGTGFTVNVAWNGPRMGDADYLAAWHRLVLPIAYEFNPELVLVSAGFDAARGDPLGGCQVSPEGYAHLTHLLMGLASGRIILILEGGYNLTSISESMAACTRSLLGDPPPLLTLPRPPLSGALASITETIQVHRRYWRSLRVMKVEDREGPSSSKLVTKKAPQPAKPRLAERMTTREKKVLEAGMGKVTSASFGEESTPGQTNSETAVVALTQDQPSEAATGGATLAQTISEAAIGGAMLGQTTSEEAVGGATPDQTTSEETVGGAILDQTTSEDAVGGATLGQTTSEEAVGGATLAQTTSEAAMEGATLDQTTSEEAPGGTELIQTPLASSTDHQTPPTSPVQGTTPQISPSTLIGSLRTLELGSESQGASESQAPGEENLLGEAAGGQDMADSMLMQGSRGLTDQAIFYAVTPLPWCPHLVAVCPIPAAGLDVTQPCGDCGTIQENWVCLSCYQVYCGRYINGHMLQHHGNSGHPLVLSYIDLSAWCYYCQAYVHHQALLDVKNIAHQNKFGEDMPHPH

[17] = biological target: HDAC1 (Homo sapiens, UniProt Q13547); assay: HDAC profiling HDAC1; type: biochemical; settings: purified isoform, 10 concentrations from 10 μM, triplicate
Chain of HDAC1 (Q13547 whole entry, canonical isoform): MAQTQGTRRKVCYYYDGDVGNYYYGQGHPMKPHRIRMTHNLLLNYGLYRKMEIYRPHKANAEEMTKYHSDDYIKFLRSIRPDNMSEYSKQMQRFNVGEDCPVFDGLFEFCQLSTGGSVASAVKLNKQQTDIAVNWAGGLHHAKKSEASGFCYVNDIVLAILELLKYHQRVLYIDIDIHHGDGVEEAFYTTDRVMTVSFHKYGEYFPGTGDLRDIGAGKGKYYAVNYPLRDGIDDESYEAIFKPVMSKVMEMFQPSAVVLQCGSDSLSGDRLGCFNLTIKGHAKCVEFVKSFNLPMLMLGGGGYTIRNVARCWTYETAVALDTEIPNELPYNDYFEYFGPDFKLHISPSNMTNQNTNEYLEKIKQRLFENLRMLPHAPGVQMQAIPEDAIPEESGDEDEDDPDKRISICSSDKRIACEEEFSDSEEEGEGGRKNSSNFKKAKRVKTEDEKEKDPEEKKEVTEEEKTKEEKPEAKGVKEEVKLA

[18] = tested on: HeLa; assay: Cytotoxicity assay (SRB, 72 h) HeLa; type: cell-based, Human; settings: Homo sapiens, HeLa, read-out: IC50 ± SD HeLa
[19] = tested on: Capan 1; assay: Cytotoxicity assay (SRB, 72 h) Capan 1; type: cell-based, Human; settings: Homo sapiens, CAPAN-1, read-out: IC50 ± SD Capan 1
[20] = tested on: A431; assay: Cytotoxicity assay (SRB, 72 h) A431; type: cell-based, Human; settings: Homo sapiens, A-431, read-out: IC50 ± SD A431
[21] = tested on: Acetylated Tubulin; assay: Western blot, acetylation of tubulin in NCI-H460 cells; type: cell-based, Human; settings: 24 h; SN38 0.05 μM, SAHA 5 μM, 3b and 3d 0.125–0.2–0.5 μM
Description: as §1, §2

`N.N.[Cl][Pt][Cl]` [Cisplatin] showed an IC50 [1] of 1260 ± 100 nM, an IC50 [2] of 7 ± 1.5 µM and an IC50 [3] of 4.2 ± 0.6 µM. For the same compound, the IC50 [4] was 2400 ± 200 nM, the IC50 [5] was 8.1 ± 0.3 µM and the IC50 [6] was 2400 ± 500 nM. It also gave an IC50 [7] of 5 ± 0.8 µM, an IC50 [8] of 6.5 ± 0.9 µM and an IC50 [9] of 3000 ± 500 nM.

Compound `CC[C@@]1(O)C(=O)OCc2c1cc1n(c2=O)Cc2c-1nc1ccccc1c2C=NOCCCCCC(=O)NO` [Compound 3b, 6-(camptothecin-7-ylmethyleneaminooxy)-hexanoic acid hydroxyamide] has an IC50 [10] of 76.2 nM, an IC50 [11] of 23 ± 4 nM and an IC80 ([11]; NCI-H460 cells) of 500 nM. For the same compound, the “RI (Resistance Index)” value [12] was 31.7, the IC50 [12] was 270 ± 70 nM and the IC50 [13] was 99.9 nM. The “accumulation of acetylated histone H4” value [14] was “less potent than 3d on both targets, particularly on H4”, the IC50 [15] was 8 ± 2 nM and the IC50 [16] was 3.87 nM. For the same compound, the IC50 [17] was 43 nM, the IC50 [18] was 160 ± 40 nM and the IC50 [19] was 6 ± 0.7 nM. For the same compound, the IC50 [20] was 4 ± 1 nM and the “accumulation of acetylated tubulin” value [21] was “less potent than 3d on both targets”.

With `CC[C@@]1(O)C(=O)OCc2c1cc1n(c2=O)Cc2c-1nc1ccccc1c2C=NOCCCCCCNC(=O)CS` [Compound 10, N-[camptothecin-7-yl-(methyleneaminooxy)-hexyl]-2-mercaptoacetamide] the IC50 [11] was 100 ± 10 nM, the “RI (Resistance Index)” value [12] was 1.7 and the IC50 [12] was 350 ± 100 nM. For the same compound, the melting point was 120 °C and the IC50 [15] was 210 ± 50 nM.
